Source: patent publication US20170166598A1, “HETEROARYL COMPOUNDS FOR KINASE INHIBITION” (ARIAD PHARMACEUTICALS, INC., priority 2014, published 2017)

Tests used:
Assay type in all cases: cell-based
[1] = target: T1, human EGFR exon 20 insertion ASV (V769_D770insASV) (Homo sapiens, UniProt P00533, INS769ASV); assay: Ba/F3-EGFR-Exon20-ASV cell anti-proliferative assay (CellTiter 96 MTS, 72 h); settings: Ba/F3-EGFR-Exon20-ASV cells
T1 construct: expressed in transfected cells; host or cells: Ba/F3 (murine pro-B) cells transduced with lentivirus from pLVX-IRES puro
T1 sequence (P00533 with tags, fused parts or gaps INS769ASV): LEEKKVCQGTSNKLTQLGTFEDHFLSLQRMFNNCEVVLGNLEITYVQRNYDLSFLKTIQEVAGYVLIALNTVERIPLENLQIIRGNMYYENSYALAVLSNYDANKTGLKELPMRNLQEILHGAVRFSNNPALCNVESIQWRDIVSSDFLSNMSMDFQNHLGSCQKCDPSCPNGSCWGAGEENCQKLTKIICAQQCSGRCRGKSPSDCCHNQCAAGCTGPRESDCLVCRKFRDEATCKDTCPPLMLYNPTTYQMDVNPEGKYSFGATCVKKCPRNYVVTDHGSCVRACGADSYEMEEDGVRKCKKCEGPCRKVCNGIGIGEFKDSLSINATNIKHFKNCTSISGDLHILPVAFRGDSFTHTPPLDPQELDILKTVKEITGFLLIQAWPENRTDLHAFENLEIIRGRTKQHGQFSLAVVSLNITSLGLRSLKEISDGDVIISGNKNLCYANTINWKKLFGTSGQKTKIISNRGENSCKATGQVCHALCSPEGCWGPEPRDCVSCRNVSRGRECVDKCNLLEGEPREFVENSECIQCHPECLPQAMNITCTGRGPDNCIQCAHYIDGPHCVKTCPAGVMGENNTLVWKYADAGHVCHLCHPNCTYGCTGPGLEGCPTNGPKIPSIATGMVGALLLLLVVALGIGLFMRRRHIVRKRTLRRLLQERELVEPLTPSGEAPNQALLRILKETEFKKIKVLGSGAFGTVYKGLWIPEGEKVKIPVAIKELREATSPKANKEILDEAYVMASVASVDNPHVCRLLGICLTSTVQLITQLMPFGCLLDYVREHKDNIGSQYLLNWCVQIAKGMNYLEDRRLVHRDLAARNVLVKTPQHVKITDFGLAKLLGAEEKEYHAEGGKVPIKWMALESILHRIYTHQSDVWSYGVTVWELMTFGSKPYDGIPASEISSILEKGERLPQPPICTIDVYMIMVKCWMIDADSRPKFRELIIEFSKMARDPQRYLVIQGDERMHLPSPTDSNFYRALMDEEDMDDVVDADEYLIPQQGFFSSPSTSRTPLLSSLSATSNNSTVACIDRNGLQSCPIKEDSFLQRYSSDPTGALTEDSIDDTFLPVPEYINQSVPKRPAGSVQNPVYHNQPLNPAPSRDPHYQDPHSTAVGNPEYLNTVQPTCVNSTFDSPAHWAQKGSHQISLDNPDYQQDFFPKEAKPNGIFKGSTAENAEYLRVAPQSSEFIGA
Description: (§1) An expression vector, pLVX-IRES puro (Clontech) coding for human EGFR exon 20 insertions NPG (H773_V774insNPG) or ASV (V769_D770insASV), was transfected into HEK293 cells by the Trans-Lentiviral ORF Packaging System (Thermo Scientific), to produce virus encoding EGFR exon 20 insertions. Ba/F3 (DSMZ) cells maintained in RPMI 1640 medium supplemented with 10% fetal bovine serum, 200 μM L-glutamine/l 200 μg/mL penicillin/200 μg/mL streptomycin (Life Technology) and 10 ng/mL IL-3 (R&D system), were infected by EGFR Exon20 virus and subsequently selected by puromycin (Life Technology) selection and IL-3 depletion. […] The anti-proliferative activity of compounds were determined as follows: BaF3-EGFR-Exon20 cells (NPG or ASV) seeded in 96 well plates (2500 cells/well) were treated with test compound (dissolved in DMSO) at a series of concentrations (4-fold dilution, top concentration: 10,000 nM). The plates were incubated for 72 h in a 37° C. incubator with 5% CO2, and the number of viable cells in each well were measured indirectly by CellTiter 96® Aqueous One Solution Cell Proliferation Assay (Promega) This assay is a colorimetric method for determining the number of viable cells through measurement of their metabolic activity by detection of enzymatic conversion of tetrazolium salts into blue formazan derivatives. Reagent (20 μL) was added into each well, and the plates were returned to the incubator for 2 h. The absorbance in each well was then measured at 490 nm using an Envision plate reader (Perkin Elmer).

[2] = target: T2, human EGFR exon 20 insertion NPG (H773_V774insNPG) (Homo sapiens, UniProt P00533, INS772GNP); assay: Ba/F3-EGFR-Exon20-NPG cell anti-proliferative assay (CellTiter 96 MTS, 72 h); settings: Ba/F3-EGFR-Exon20-NPG cells
T2 construct: expressed in transfected cells; host or cells: Ba/F3 (murine pro-B) cells transduced with lentivirus from pLVX-IRES puro
T2 sequence (P00533 with tags, fused parts or gaps INS772GNP): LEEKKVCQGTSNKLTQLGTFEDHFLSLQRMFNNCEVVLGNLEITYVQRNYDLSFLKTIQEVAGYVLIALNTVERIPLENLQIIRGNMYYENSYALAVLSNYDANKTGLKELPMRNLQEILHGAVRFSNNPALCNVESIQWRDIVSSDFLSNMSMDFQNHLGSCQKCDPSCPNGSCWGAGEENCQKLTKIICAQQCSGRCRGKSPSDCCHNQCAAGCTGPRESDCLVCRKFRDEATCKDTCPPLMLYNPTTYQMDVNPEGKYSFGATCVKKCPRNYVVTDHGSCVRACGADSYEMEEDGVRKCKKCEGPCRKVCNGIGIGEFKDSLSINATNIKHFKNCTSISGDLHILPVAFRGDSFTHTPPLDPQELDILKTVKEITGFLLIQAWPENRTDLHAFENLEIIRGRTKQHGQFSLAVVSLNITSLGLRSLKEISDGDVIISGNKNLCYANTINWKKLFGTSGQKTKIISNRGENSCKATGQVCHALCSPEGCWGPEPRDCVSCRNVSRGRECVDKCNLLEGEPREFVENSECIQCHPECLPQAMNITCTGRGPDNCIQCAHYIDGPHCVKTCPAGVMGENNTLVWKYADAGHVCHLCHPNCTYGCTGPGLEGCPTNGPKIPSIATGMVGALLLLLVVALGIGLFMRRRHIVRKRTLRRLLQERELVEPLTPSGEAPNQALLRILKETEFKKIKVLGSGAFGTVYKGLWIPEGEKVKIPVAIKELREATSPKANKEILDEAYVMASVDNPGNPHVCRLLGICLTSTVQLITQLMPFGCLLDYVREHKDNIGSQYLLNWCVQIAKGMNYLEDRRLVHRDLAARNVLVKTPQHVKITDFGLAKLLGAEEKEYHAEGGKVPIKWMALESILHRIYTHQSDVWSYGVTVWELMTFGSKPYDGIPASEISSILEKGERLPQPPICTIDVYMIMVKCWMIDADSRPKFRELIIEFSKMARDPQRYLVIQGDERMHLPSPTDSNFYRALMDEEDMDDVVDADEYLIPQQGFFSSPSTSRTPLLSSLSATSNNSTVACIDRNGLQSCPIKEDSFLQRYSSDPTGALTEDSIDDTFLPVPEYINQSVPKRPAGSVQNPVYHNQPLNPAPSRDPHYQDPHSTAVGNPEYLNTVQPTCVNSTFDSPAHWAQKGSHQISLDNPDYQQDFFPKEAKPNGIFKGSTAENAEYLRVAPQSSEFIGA
Description: as §1

[3] = target: T3, human EGFR E746-A750 deletion and T790M Mutation (Homo sapiens, UniProt P00533, DEL746-750/T790M); assay: Ba/F3-EGFR-Del/T790M cell anti-proliferative assay (CellTiter 96 MTS, 72 h); settings: Ba/F3-EGFR-Del/T790M cells
T3 construct: expressed in transfected cells; host or cells: Ba/F3 (murine pro-B) cells transduced with lentivirus from pLVX-IRES puro
T3 sequence (P00533 with tags, fused parts or gaps DEL746-750/T790M): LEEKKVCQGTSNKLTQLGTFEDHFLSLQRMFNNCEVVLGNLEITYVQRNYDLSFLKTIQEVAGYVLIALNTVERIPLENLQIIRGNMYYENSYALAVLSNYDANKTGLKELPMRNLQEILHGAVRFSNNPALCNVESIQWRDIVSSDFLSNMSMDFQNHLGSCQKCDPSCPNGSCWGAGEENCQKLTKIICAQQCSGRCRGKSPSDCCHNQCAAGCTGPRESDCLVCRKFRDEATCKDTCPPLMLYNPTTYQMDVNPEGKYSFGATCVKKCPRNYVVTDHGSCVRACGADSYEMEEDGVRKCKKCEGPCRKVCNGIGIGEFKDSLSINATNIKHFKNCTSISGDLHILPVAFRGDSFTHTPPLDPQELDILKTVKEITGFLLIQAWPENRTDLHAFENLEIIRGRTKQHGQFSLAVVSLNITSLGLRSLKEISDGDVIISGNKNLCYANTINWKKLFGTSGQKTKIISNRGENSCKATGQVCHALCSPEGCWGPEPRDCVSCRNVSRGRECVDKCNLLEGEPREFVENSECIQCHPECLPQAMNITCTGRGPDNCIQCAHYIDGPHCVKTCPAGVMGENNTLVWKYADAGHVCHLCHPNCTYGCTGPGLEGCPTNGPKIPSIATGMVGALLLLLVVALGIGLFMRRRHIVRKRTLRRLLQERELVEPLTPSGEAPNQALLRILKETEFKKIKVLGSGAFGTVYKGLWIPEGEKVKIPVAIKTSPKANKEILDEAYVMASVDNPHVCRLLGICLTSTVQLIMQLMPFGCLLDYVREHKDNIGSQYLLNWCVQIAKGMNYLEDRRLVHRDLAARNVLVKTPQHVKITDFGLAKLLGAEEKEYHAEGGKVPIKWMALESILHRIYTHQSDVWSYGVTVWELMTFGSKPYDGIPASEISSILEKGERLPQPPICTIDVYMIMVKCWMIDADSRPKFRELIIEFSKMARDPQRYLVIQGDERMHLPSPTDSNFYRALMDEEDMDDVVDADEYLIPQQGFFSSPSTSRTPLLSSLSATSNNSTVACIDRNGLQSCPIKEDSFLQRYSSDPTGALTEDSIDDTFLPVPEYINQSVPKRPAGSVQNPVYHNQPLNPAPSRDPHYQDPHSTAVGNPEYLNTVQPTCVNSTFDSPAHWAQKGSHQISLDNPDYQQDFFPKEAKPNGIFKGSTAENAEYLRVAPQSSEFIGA
Description: An expression vector, pLVX-IRES puro (Clontech) coding for human EGFR E746-A750 deletion and T790M Mutation, was transfected into HEK293 cells by the Trans-Lentiviral ORF Packaging System (Thermo Scientific), to produce virus encoding EGFR exon 19 deletion and T790M mutations. Ba/F3 (DSMZ) cells maintained in RPMI 1640 medium supplemented with 10% fetal bovine serum, 200 μM L-glutamine/200 μg/mL penicillin/200 μg/mL streptomycin (Life Technology) and 10 ng/mL IL-3 (R&D system), were infected by EGFR E746-A750 deletion and T790M Mutation virus and subsequently selected by puromycin (Life Technology) selection and IL-3 depletion. […] The anti-proliferative activity of compounds was determined as follows: BaF3-EGFR-Del/T790M cells seeded in 96 well plates (2500 cells/well) were treated with test compound (dissolved in DMSO) at a series of concentrations (4-fold dilution, top concentration: 10,000 nM). The plates were incubated for 72 h in a 37° C. incubator with 5% CO2, and the number of viable cells in each well were measured indirectly by CellTiter 96® Aqueous One Solution Cell Proliferation Assay (Promega; this assay is a colorimetric method for determining the number of viable cells through measurement of their metabolic activity by detection of enzymatic conversion of tetrazolium salts into blue formazan derivatives). Reagent (20 μL) was added into each well, and the plates were returned to the incubator for 2 h. The absorbance in each well was then measured at 490 nm using an Envision plate reader (Perkin Elmer).

[4] = target: T4, Her2 exon 20 YVMA insertion (A775_G776ins YVMA) (Homo sapiens, UniProt P04626, INS775YVMA); assay: Ba/F3-Her2 Exon20 YVMA cell anti-proliferative assay (CellTiter 96 MTS, 72 h); settings: Ba/F3-Her2 Exon20 YVMA cells
T4 construct: expressed in transfected cells; host or cells: Ba/F3 (murine pro-B) cells transduced with lentivirus from pLVX-IRES puro
T4 sequence (P04626 with tags, fused parts or gaps INS775YVMA): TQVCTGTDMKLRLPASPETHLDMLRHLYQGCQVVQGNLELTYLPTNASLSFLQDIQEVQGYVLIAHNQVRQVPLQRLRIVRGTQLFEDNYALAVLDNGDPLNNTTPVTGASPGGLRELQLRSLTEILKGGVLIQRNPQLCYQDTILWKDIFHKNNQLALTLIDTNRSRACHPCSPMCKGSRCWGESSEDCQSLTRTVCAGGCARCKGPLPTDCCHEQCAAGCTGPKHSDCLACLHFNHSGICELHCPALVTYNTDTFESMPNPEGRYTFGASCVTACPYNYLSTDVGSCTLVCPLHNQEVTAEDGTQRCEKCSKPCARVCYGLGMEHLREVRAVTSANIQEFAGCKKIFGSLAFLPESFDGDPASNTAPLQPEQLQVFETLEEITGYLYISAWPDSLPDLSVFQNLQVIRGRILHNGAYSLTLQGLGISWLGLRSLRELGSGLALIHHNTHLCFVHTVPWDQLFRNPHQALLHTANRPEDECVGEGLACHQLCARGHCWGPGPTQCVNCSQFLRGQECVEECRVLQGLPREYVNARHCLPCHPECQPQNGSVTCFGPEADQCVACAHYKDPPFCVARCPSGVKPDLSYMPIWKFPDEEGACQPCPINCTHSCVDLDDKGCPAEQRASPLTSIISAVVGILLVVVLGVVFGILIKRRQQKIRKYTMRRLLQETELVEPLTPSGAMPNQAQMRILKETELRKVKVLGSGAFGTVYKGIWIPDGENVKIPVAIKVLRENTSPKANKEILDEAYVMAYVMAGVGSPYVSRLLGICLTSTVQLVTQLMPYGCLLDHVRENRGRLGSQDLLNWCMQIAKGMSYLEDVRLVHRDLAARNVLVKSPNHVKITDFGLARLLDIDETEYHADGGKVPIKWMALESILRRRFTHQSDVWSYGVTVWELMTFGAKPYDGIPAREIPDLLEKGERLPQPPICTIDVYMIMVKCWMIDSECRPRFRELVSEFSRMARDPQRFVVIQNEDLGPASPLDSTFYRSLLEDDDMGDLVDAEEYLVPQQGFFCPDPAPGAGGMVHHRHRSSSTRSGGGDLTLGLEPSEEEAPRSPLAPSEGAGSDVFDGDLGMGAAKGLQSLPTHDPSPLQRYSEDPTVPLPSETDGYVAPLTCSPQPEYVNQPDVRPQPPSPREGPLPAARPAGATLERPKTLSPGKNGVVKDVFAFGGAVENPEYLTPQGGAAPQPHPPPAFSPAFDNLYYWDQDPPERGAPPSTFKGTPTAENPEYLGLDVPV
Text: A compound's ability in selectively inhibiting Her2 exon 20 YVMA insertion mutations can be assessed using Ba/F3 cells, a murine pro-B cell line, which have been transduced with Her2 Exon20 YVMA insertions. An expression vector, pLVX-IRES puro (Clontech) coding for […] (A775_G776ins YVMA), was transfected into HEK293 cells by the Trans-Lentiviral ORF Packaging System (Thermo Scientific), to produce virus encoding EGFR exon 20 insertions. Ba/F3 (DSMZ) cells maintained in RPMI 1640 medium supplemented with 10% fetal bovine serum, 200 μM L-glutamine/200 μg/mL penicillin/200 μg/mL streptomycin (Life Technology) and 10 ng/mL IL-3 (R&D system), were infected by EGFR Exon20 virus and subsequently selected by puromycin (Life Technology) selection and IL-3 depletion. Ba/F3 cells expressing Her2 Exon20 YVMA insertions (named Ba/F3-Her2 Exon20 YVMA) can proliferate in the absence of IL-3. The anti-proliferative activity of compounds was determined as follows: BaF3-Her2 Exon20 YVMA cells seeded in 96 well plates (2500 cells/well) were treated with test compound (dissolved in DMSO) at a series of concentrations (4-fold dilution, top concentration: 10,000 nM). The plates were incubated for 72 h in a 37° C. incubator with 5% CO2, and the number of viable cells in each well were measured indirectly by CellTiter 96@ Aqueous One Solution Cell Proliferation Assay (Promega; this assay is a colorimetric method for determining the number of viable cells through measurement of their metabolic activity by detection of enzymatic conversion of tetrazolium salts into blue formazan derivatives). Reagent (20 μL) was added into each well, and the plates were returned to the incubator for 2 h. The absorbance in each well was then measured at 490 nm using an Envision plate reader (Perkin Elmer).

Row | Structure (SMILES) | IC50 [1] [µM] | IC50 [2] [µM] | EGFR exon 19 deletion and exon 20 T790M mutation IC50 [3] | IC50 [4] [µM]
1 | C=CC(=O)Nc1cc(Nc2ncc(C(=O)OC(C)C)c(-c3cn4c5c(cccc35)CCC4)n2)c(OC)cc1N(C)CCN(C)C [Example 103] | < 0.1 | < 0.1 | A (IC50 value for the indicated mutant below about 100 nM) | < 0.1
2 | C=CC(=O)Nc1cc(Nc2ncc(OCC#N)c(-c3cn4c5c(cccc35)CCC4)n2)c(OC)cc1N(C)CCN(C)C [Example 50, N-(5-((5-(cyanomethoxy)-4-(5,6-dihydro-4H-pyrrolo[3,2,1-ij]quinolin-1-yl)pyrimidin-2-yl)amino)-2-((2-(dimethylamino)ethyl)(methyl)amino)-4-methoxyphenyl)acrylamide] | < 0.1 | < 0.1 | A (IC50 value for the indicated mutant below about 100 nM) | < 0.1
3 | C=CC(=O)Nc1cc(Nc2ncc(-c3nccn3C)c(-c3cn4c5c(cccc35)CCC4)n2)c(OC)cc1N(C)CCN(C)C [Example 98] | < 0.1 | < 0.1 | A (IC50 value for the indicated mutant below about 100 nM) | 0.1 to 0.5
4 | C=CC(=O)Nc1cc(Nc2ncc(C#N)c(-c3cn4c5c(cccc35)N(C)C(=O)C4)n2)c(OC)cc1N1CC[C@@H](N(C)C)C1 [Example 55, (R)-N-(5-((5-cyano-4-(1-methyl-2-oxo-2,3-dihydro-1H-pyrrolo[1,2,3-de]quinoxalin-6-yl)pyrimidin-2-yl)amino)-2-(3-(dimethylamino)pyrrolidin-1-yl)-4-methoxyphenyl)acrylamide] | 0.1 to 0.5 | < 0.1 | A (IC50 value for the indicated mutant below about 100 nM) | 0.1 to 0.5
5 | C=CC(=O)Nc1cc(Nc2ncc(-c3ncnn3C)c(-c3cn4c5c(cccc35)CCC4)n2)c(OC)cc1N(C)CCN(C)C [Example 111] | < 0.1 | < 0.1 | A (IC50 value for the indicated mutant below about 100 nM) | 0.1 to 0.5
6 | C=CC(=O)Nc1cc(Nc2ncc(N3CCCC3)c(-c3cn4c5c(cccc35)CCC4)n2)c(OC)cc1N(C)CCN(C)C [Example 106] | 0.1 to 0.5 | 0.1 to 0.5 | A (IC50 value for the indicated mutant below about 100 nM) | 0.5 to 1
7 | C=CC(=O)Nc1cc(Nc2ncc(CCC#N)c(-c3cn4c5c(cccc35)CCC4)n2)c(OC)cc1N(C)CCN(C)C [Example 41, N-(5-((5-(2-cyanoethyl)-4-(5,6-dihydro-4H-pyrrolo[3,2,1-ij]quinolin-1-ul)pyrimidin-2-yl)amino)-2-((2-(dimethylamino)ethyl)(methyl)amino)-4-methoxyphenyl)acrylamide] | < 0.1 | < 0.1 | A (IC50 value for the indicated mutant below about 100 nM) | < 0.1
8 | C=CC(=O)Nc1cc(Nc2ncc(C#N)c(-c3cn4c5c(cccc35)OCC4)n2)c(OC)cc1N1CC[C@@H](N(C)C)C1 [Example 5, (R)-N-(5-((5-cyano-4-(2,3-dihydro-[1,4]oxazino[2,3,4-hi]indol-6-yl)pyrimidin-2-yl)amino)-2-(3-(dimethylamino)pyrrolidin-1-yl)-4-methoxyphenyl)acrylamide] | < 0.1 | < 0.1 | A (IC50 value for the indicated mutant below about 100 nM) | 0.1 to 0.5
9 | C=CC(=O)Nc1cc(Nc2nccc(-c3c(N4CCC(O)C4)n4c5c(cccc35)CCC4)n2)c(OC)cc1N(C)CCN(C)C (stereo not shown) [Example 61, N-(2-((2-(dimethylamino)ethyl)(methyl)amino)-5-((4-(2-(3-hydroxypyr4rolidin-1-yl)5,6-dihydro-4H-pyrrolo[3,2,1-ij]quinolin-1-yl)pyrimidin-2-yl)amino)-4-methoxyphenyl)acrylamide] | < 0.1 | < 0.1 | A (IC50 value for the indicated mutant below about 100 nM) | < 0.1
10 | C=CC(=O)Nc1cc(Nc2ncc(-c3cc(C)nn3C)c(-c3cn4c5c(cccc35)CCC4)n2)c(OC)cc1N(C)CCN(C)C [Example 101] | < 0.1 | < 0.1 | A (IC50 value for the indicated mutant below about 100 nM) | < 0.1
11 | C=CC(=O)Nc1cc(Nc2ncc(Cl)c(-c3nn4c5c(cccc35)OCC4)n2)c(OC)cc1N(C)CCN(C)C [Example 57, N-(5-((5-chloro-4-(2,3-dihydro-[1,4]oxazino[2,3,4-hi]indazol-6-yl)pyrimidin-2-yl)amino)-2-((2-(dimethylamino)ethyl)(methyl)amino)-4-methoxyphenyl)acrylamide] | < 0.1 | < 0.1 | A (IC50 value for the indicated mutant below about 100 nM) | 0.1 to 0.5
12 | C=CC(=O)Nc1cc(Nc2ncc(C(=O)O)c(-c3cn4c5c(cccc35)CCC4)n2)c(OC)cc1N(C)CCN(C)C [Example 45, 2-((5-acrylamido-4-((2-(dimethylamino)ethyl)(methyl)amino)-2-methoxyphenyl)amino)-4-(5,6-dihydro-4H-pyrrolo[3,2,1-ij]quinolin-1-yl)pyrimidine-5-carboxylic acid] | > 1 | > 1 | D (IC50 value for the indicated mutant greater than about 1 μM) | > 1
13 | C=CC(=O)Nc1cc(Nc2ncc(-c3cnn(C)c3)c(-c3cn4c5c(cccc35)CCC4)n2)c(OC)cc1N(C)CCN(C)C [Example 49, N-(5-((4-(5,6-dihydro-4H-pyrrolo[3,2,1-ij]quinolin-1-yl)-5-(1-methyl-1H-pyrazol-4-yl)pyrimidin-2-yl)amino)-2-((2-(dimethylamino)ethyl)(methyl)amino)-4-methoxyphenyl)acrylamide] | < 0.1 | < 0.1 | A (IC50 value for the indicated mutant below about 100 nM) | < 0.1
